Experiments:
Type in all cases: cell-based
[1] = test system: E. coli; assay: Bacterial growth in absorbent cores (method 4), E. coli
Protocol: (§1) 16 ml (corresponding to a maximum absorption capacity of a test specimen according to method 1) of test liquid 1 containing the bacteria were added to a test specimen placed in plastic tubs, and a lid was fitted on the tubs. The tubs were turned upside down and incubated in a warm cabinet at 35° C. After incubation for 0, 6 and 12 hours, the test samples were placed in a plastic bag with peptone water and the content was homogenized (agitated and worked up) in a stomacker for 3 minutes. The homogenate was diluted in dilution tubes with peptone water and a microbiological culture was spread on agar plates. Slanetz Bartley agar was used for E. faecalis, and Drigalski agar for E. coli and P. mirabilis. The specimens were incubated at 35° C. for 1-2 days before the colonies were counted and the log CFU/ml calculated. Control tests were also carried out with absorbent cores without NaCl.
(§2) Bacteria were cultured in nutrient broth and diluted to the desired concentration of about Log 3.3 in test liquid 1 (method 4). Absorbent test specimens were produced according to method 1. […] The bacterial growth was measured according to method 4.
(§3) Absorbent cores were produced according to method 1. […] The bacterial growth of E. coli, P. mirabilis and E. faecalis was measured after 0, 6 and 12 hours according to method 4. […]

[2] = test system: P. mirabilis; assay: Bacterial growth in absorbent cores (method 4), P. mirabilis
Protocol: as §1, §2, §3

[3] = test system: Proteus mirabilis; assay: Ammonia formation in absorbent cores (method 3); conditions: Example 2, FIG. 5; specimen containing 29% by weight of NaCl; after 6 and 8 hours
Protocol: Absorbent test specimens were produced according to method 1. A bacterial suspension of Proteus mirabilis was cultured in nutrient solution at 30° C. overnight. The grafted cultures were diluted with test liquid 1 and the quantity of bacteria was determined. The final culture contained approximately 10^5 organisms per ml of test liquid. The absorbent core was placed in a plastic tub and test liquid 1 containing bacteria was added to the absorbent core, after which the container was incubated at 35° C. for 4, 6 and 8 hours, and then the specimens were removed from the container using a hand pump and a so-called Drager tube. The ammonia content was obtained as a color change on a scale graduated in ppm or percent by volume.
Absorbent test specimens were produced according to method 1. 16 ml, maximum absorption capacity, of test liquid 1 containing bacteria were added to a test specimen. 29 (high), 22 (medium) and 12 (low) % by weight of NaCl (% dry) and 22 (medium) % by weight of CaCl2 (% dry) were added to the core. The quantity of developed ammonia was measured according to method 3 after 6 and 8 hours. […]
Absorbent test specimens were produced according to method 1. […] The quantity of added pH-reducing substance was 5% by weight of the pulp. […] The quantity of developed ammonia was measured according to method 3 after 6 and 8 hours.

[4] = test system: E. faecalis; assay: Bacterial growth in absorbent cores (method 4), E. faecalis
Protocol: as §1, §2, §3

[5] = 3% added salt (% wet) = 29% by weight (% dry), NaCl high in FIG. 4, 12 hours, 35° C., 16 ml test liquid 1 (maximum load), start about Log 3.3, method counts log CFU/ml
[6] = Example 1, FIG. 4, 29, 22 and 12% by weight NaCl (% dry), after 6 and 12 hours, inhibition better with higher salt content

SMILES: [Cl-].[Na+] [NaCl]
- growth of E. coli after 12 hours [1, 5]: < 5.5 log
- growth of E. coli compared with the control tests [1, 6]: lower
- growth of P. mirabilis after 12 hours [2, 5]: < 5.5 log
- growth of P. mirabilis compared with the control tests [2, 6]: lower
- development of NH3, ranking among the specimens [3]: lowest development of NH3
- growth of E. faecalis after 12 hours [4, 5]: < 5.5 log
- growth of E. faecalis compared with the control tests [4, 6]: lower

Source: patent publication US20090306612A1, “ABSORBENT ARTICLE” (SCA HYGIENE PRODUCTS AB, priority 2006, published 2009)
